One data set deals with Vero cells. Briefly: Cytotoxicity assay, trypan blue exclusion. The data set is classed as cell-based. The following applies: 48 hour incubation, six determinations, read-out: Mean IC50 ± SD, Vero cells. The protocol:
(§1) The cytotoxicity of the hybrid compounds and the reference drug, metronidazole, was investigated on Hep-2 and Vero cells using the standard cytotoxicity assay and the trypan blue exclusion method. A cell suspension (10^5 cells/mL RPMI medium-10% inactivated foetal calf serum) was prepared from confluent cultures and 100 µL portions of the suspension were added to the wells of 96-well plates. The cells were incubated for 24 h at 37 °C and 5 % CO2 and the medium in each well was then replaced with fresh 150 µL medium. Solutions of the compounds or the reference drug were prepared and sterilized as described in “Antiamoebic and antigiardial activity” section above. Then, 150 µL-two fold serial dilutions of each of the compounds and the reference drug starting at a concentration of 2000 µg/mL in culture medium were prepared in the plates. After 48 hour incubation at 37 °C and 5 % CO2, the number of cells in each well was determined as follows: The medium in each well was gently replaced with 100 µL of 0.25% (w/v) trypsin-0.53 mM EDTA solution and the plates were incubated for 5 min. at 37 °C to allow cell detachment. Two-hundred microliters of trypan blue solution were added to each well and the plates were, then, placed on ice. The cells were counted in a hemacytometer at the 10X objective. Each compound was assayed in duplicate in each of three independent experiments. In each assay the negative controls (without any compound or reference drug) were included in duplicates.

Data set [1] relates to Entamoeba histolytica HK-9 strain. As to the kind of experiment: In vitro antiamoebic activity (parasite count, trypan blue). The following applies: 72 hours at 36-37 °C, six determinations, read-out: Mean IC50 ± SD, Entamoeba histolytica. The data set is classed as cell-based. The protocol:
(§2) Entamoeba histolytica HK-9 strain (ATCC number 30015) was cultured in LYI-S-2 medium supplemented with antibiotics. Giardia intestinalis WB strain (ATCC number 30957) was grown in a modified YI-S medium with antibiotics. Both parasites were cultivated in 15-mL screw-capped borosilicate glass tubes containing 13 mL medium. The tubes were incubated on a 15º horizontal slant at (36-37) ºC. Culture maintenance and subculturing was performed as described Entamoeba and Giardia were harvested from confluent cultures by chilling of the tubes on ice for 5-10 min. to detach cells, followed by centrifugation at 800 x g for 5 min.
(§3) Two milligrams of a test compound or a mixture were dissolved in 10 µL of dimethyl sulfoxide (DMSO) and completed with 1 mL growth medium. The solutions were filter sterilized using 0.22 µm syringe filters and the appropriate volumes of the solutions were taken to prepare the concentrations of each compound or reference drug in 15-mL screw-capped borosilicate glass tubes. […] For the control mixtures of the precursor compounds, 1:1 molar ratios were prepared. Each tube was inoculated with 20,000 cells of the parasite under testing (Entamoeba or Giardia). Each compound or mixture was assayed in duplicate in each of three independent experiments. In each assay, the appropriate controls were performed, including the one without any compound or mixture and another with metronidazole as the positive control. The caps of Entamoeba and Giardia tubes were tightly screwed and wrapped with Parafilm. The tubes were incubated on a 15º horizontal slant at 36-37 °C for 72 hours.
(§4) The parasites in each tube were counted using the standard hemacytometer at the 10X objective. In each count, trypan blue was employed to distinguish live from dead parasites. To permit detachment of Entamoeba and Giardia, the tubes were placed on ice for few minutes and the parasites were then centrifuged at 1000 x g for 10 min. The supernatant was discarded and 1 mL fresh medium was added to each tube. The final suspension was prepared by mixing 25 µL of the parasite suspension in each tube with 100 µL of 0.4 % trypan blue in phosphate buffered saline (PBS). The 50% inhibitory concentration (IC50) was employed as a parameter for biological activity. The IC50 is the concentration of compounds which cuts the number of parasites to half that in the negative control (growth medium + DMSO + parasites).

Data set [2] concerns Giardia intestinalis WB strain. As to the kind of experiment: In vitro antigiardial activity (parasite count, trypan blue). The data set is classed as cell-based. The conditions noted are these: 72 hours at 36-37 °C, six determinations, read-out: Mean IC50 ± SD, Giardia intestinalis. How it is done:
as §2, §3, §4

In a further data set the test system is Hep-2 cells. Briefly: cells. The conditions noted are these: for IC50: 48 hour incubation, six determinations, read-out: Mean IC50 ± SD, Hep-2 cells. The data set is classed as cell-based. The protocol: as §1
A short description of data set [3]: Solubility in DMSO-aqueous medium (bioassay preparation). It is filed as physicochemical. The protocol:
The antiamoebic and antigiardial activities of the prepared hybrid molecules 8, 10-a, 12, their precursors, and 1:1 mixtures of these precursors were tested as described, with some modifications. […] Two milligrams of a test compound or a mixture were dissolved in 10 µL of dimethyl sulfoxide (DMSO) and completed with 1 mL growth medium. […] For each preparation, concentrations of 240, 120, 60, 30, 15, 7.5, 3.5, 1.7, 0.8, 0.4, 0.2, 0.1 µg/mL medium were prepared in a final volume of 15 mL to exclude air from the tube. For the control mixtures of the precursor compounds, 1:1 molar ratios were prepared. […] Each compound or mixture was assayed in duplicate in each of three independent experiments. In each assay, the appropriate controls were performed, including the one without any compound or mixture and another with metronidazole as the positive control. The caps of Entamoeba and Giardia tubes were tightly screwed and wrapped with Parafilm. The tubes were incubated on a 15º horizontal slant at 36-37 °C for 72 hours.

Like-named read-outs stand apart in the source and are kept apart here.

Broadly, the IC50 is the concentration that gives 50% inhibition. With “3-(5-nitrofuran-2-yl)-N-[2-(5-nitroimidazol-1-yl)ethyl]acrylamide [Compound 8]”, the IC50 with Vero cells came to 90.5 ± 7.83 µM; in data set [1] it was 5.32 ± 0.21 µM; in data set [2] it was 5.56 ± 0.37 µM; with Hep-2 cells, 108 ± 8.02 µM.
For `Clc1ccc2c(N3CCNCC3)ccnc2c1` [Compound 9, 7-Chloro-4-(piperazine-1-yl) quinoline, reference compound], the IC50 worked out at 55.7 ± 5 µM in data set [1] (Entamoeba histolytica, 72 h) and 67.5 ± 8.67 µM in data set [2] (Giardia duodenalis, 72 h).
Taken in the same sequence, the figures for `Cc1ncc([N+](=O)[O-])n1CCN` [Compound 6, 2-(2-Methyl-5-1H-nitroimidazolyl)ethylamine, reference compound] were 18.2 ± 2.28 µM and 18.5 ± 1.43 µM.
Consider `Cc1ncc([N+](=O)[O-])n1CCO` [Metronidazole, metronidazole, reference compound], for which the IC50 with Vero cells (Chlorocebus sabaeus, Vero) came out at 1500 ± 17.8 µM; in data set [1] (Entamoeba histolytica, 72 h), 5.2 ± 1.03 µM; in data set [2] (Giardia duodenalis, 72 h), 5.7 ± 0.78 µM; in the data set on Hep-2 cells (Homo sapiens, HEp-2), 1460 ± 18.3 µM. Besides, the “IC50 ratio, Hep-2 and Vero cells versus the tested parasites” value with Hep-2 cells (IC50 against Hep-2 and Vero cells over IC50 against Entamoeba and Giardia) is “around 270 times”.
As to `O=C(/C=C/c1ccc([N+](=O)[O-])o1)N1CCN(c2ccnc3cc(Cl)ccc23)CC1` [Compound 10-a], the IC50 in the data set with Vero cells (Chlorocebus sabaeus, Vero) was 593 ± 8.71 µM; in data set [1], 140 ± 6.37 µM; in data set [1] (Entamoeba histolytica, 72 h), ~140 µM; in data set [2] it was 145 ± 5.37 µM; in data set [2] (Giardia duodenalis, 72 h) it was ~140 µM; in the data set on Hep-2 cells (Homo sapiens, HEp-2) it was 574 ± 7.77 µM. Moreover, the “cytotoxicity at the lethal concentrations against the parasites” value in the data set on Hep-2 cells (Hep-2 and Vero cells) is “non-cytotoxic”.
For `O=C(/C=C\c1ccc([N+](=O)[O-])o1)N1CCN(c2ccnc3cc(Cl)ccc23)CC1` [Compound 10-b], the “solubility in DMSO-aqueous medium” value in data set [3] is “insolubility”.
On to `O=C(O)/C=C/c1ccc([N+](=O)[O-])o1` [Compound 7, 5-Nitro-2-furylacrilic acid, reference compound], for which the IC50 in data set [1] (Entamoeba histolytica, 72 h) was 94.3 ± 9.76 µM; in data set [2] (Giardia duodenalis, 72 h), 88.4 ± 7.1 µM.

The values above are taken from article PMC6254164, “Synthesis of Novel Hybrid Molecules from Precursors With Known Antiparasitic Activity” (Molecules, 2009).
